Series [1] deals with Rho-associated protein kinase 2 (Homo sapiens, UniProt O75116). Nature of the series: Inhibition of ROCK2.
Series [2] deals with Rho-associated protein kinase 1 (Homo sapiens, UniProt Q13464). In words: Inhibition of ROCK1.
Series [3] can be described thus: Inhibition of PKA.
Series [4] can be described thus: Inhibition of myosin light chain bisphosphorylation by cell-based assay.
A short description of series [5]: Half life in human liver microsomes. The series is classed as ADME, Microsome.
Series [6] concerns the target T1, CYP1A2 (Homo sapiens, UniProt P05177).
T1 sequence (P05177 whole entry): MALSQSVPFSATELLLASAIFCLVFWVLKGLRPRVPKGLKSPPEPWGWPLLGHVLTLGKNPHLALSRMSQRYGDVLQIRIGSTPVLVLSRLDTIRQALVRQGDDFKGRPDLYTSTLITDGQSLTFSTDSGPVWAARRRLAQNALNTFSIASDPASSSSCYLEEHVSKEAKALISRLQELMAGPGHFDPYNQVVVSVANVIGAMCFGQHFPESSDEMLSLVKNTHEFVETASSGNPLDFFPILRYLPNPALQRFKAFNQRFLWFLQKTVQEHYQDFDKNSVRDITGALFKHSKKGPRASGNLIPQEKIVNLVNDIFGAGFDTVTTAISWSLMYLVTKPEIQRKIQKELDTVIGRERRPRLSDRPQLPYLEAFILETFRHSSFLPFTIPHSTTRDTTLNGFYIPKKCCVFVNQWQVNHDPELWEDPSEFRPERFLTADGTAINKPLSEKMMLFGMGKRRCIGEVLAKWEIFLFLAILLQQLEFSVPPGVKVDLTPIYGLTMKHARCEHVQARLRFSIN
Nature of the series: Inhibition of CYP1A2 at 10 uM. Format: ADME.

Series [7] deals with CYP2C9 (Homo sapiens, UniProt P11712). In words: Inhibition of CYP2C9 at 10 uM. The series is classed as ADME.
CYP2C9, sequence (P11712 whole entry): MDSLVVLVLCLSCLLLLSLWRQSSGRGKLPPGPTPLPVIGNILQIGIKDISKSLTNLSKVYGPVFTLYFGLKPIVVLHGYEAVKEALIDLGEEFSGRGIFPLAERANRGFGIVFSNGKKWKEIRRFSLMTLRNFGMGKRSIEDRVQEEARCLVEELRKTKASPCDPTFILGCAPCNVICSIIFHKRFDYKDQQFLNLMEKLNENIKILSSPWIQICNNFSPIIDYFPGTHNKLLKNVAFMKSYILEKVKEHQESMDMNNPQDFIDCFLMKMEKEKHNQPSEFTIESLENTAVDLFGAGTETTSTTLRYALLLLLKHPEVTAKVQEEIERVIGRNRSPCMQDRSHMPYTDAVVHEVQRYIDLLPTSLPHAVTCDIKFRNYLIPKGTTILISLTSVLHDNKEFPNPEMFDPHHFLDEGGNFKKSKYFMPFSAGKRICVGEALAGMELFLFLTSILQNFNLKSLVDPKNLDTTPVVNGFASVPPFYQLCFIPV
Series [8] has as its target CYP2D6 (Homo sapiens, UniProt P10635). In words: Inhibition of CYP2D6 at 10 uM. Format: ADME.
For series [9], the target named is CYP3A4 (Homo sapiens, UniProt P08684). In words: Inhibition of CYP3A4 at 10 uM. Format: ADME.
CYP3A4, sequence (P08684 whole entry): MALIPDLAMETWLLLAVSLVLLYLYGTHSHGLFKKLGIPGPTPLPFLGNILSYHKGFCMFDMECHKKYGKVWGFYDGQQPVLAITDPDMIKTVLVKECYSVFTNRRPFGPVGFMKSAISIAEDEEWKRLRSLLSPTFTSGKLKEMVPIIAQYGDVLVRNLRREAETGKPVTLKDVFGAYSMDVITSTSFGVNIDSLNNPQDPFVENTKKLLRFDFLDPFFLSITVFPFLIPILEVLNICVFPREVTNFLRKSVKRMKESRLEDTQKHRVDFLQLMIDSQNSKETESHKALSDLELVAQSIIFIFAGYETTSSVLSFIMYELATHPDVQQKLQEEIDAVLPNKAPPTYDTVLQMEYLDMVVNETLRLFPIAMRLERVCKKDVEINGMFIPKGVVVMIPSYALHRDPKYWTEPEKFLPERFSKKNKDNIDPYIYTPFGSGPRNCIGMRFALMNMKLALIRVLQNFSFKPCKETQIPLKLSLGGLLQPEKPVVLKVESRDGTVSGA
A short description of series [10]: Clearance in rat at 1 mg/kg, iv or 2 mg/kg, po. Format: ADME, organism-based. As to conditions: in vivo.
Series [11] in a line: Volume of distribution at steady state in rat at 1 mg/kg, iv or 2 mg/kg, po. As to conditions: in vivo, read-out: Vdss. The series is classed as ADME, organism-based.
Series [12] is described as follows: Half life in rat at 1 mg/kg, iv or 2 mg/kg, po. The series is classed as ADME, organism-based. As to conditions: in vivo.
Series [13] is described as follows: AUC in rat at 2 mg/kg, po. The series is classed as ADME, organism-based. Details: dose 2 mg/kg, route oral. To be noted: plasma.
A short description of series [14]: Oral bioavailability in rat at 2 mg/kg. As to conditions: in vivo. The series is classed as ADME, organism-based.
The nature of series [15]: Aqueous solubility of compound at pH 5.5. The series is classed as physicochemical. As to conditions: buffer.
Series [16] can be described thus: Aqueous solubility of compound at pH 7.4. The series is classed as physicochemical. To be noted: buffer.
Series [17] is described as follows: AUC in rat at 1 mg/kg, iv. Format: ADME, organism-based. More on the design: dose 1 mg/kg, route intravenous. As to conditions: plasma.

In brackets after ≈: the same amount, converted by molar mass.

Rho-associated protein kinase 2, sequence (O75116 whole entry): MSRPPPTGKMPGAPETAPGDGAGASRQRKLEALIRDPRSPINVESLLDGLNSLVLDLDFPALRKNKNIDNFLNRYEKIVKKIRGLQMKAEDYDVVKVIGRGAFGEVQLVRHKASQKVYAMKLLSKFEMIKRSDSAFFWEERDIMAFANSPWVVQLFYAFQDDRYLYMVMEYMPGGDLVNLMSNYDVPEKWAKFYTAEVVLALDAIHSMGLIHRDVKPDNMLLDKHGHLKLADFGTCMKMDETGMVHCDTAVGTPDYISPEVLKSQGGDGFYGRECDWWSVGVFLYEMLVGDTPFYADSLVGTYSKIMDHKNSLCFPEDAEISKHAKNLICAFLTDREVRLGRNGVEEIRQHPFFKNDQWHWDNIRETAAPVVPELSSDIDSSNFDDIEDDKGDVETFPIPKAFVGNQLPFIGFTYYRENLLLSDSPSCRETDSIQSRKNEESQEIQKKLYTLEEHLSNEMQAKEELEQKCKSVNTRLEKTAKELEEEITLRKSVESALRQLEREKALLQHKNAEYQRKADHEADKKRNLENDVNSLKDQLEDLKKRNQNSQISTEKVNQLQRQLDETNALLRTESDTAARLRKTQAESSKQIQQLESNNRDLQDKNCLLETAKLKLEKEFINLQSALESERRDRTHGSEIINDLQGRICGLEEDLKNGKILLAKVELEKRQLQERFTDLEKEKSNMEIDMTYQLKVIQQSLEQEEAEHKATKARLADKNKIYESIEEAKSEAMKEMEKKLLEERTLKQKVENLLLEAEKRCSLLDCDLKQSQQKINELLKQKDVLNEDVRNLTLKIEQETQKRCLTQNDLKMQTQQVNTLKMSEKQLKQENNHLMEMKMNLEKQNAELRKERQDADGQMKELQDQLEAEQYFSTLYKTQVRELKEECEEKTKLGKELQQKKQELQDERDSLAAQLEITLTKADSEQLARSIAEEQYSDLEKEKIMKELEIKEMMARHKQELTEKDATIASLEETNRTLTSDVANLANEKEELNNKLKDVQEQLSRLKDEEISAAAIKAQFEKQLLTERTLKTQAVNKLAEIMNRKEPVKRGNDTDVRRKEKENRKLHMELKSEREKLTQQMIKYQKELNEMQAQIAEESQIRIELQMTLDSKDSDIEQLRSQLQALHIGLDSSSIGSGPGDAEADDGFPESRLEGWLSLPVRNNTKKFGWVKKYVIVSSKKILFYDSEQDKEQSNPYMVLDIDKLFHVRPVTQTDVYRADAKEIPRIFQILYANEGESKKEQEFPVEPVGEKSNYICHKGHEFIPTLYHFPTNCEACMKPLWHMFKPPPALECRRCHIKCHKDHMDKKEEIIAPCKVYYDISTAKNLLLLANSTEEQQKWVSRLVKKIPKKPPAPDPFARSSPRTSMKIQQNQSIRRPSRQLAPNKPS
Rho-associated protein kinase 1, sequence (Q13464 whole entry): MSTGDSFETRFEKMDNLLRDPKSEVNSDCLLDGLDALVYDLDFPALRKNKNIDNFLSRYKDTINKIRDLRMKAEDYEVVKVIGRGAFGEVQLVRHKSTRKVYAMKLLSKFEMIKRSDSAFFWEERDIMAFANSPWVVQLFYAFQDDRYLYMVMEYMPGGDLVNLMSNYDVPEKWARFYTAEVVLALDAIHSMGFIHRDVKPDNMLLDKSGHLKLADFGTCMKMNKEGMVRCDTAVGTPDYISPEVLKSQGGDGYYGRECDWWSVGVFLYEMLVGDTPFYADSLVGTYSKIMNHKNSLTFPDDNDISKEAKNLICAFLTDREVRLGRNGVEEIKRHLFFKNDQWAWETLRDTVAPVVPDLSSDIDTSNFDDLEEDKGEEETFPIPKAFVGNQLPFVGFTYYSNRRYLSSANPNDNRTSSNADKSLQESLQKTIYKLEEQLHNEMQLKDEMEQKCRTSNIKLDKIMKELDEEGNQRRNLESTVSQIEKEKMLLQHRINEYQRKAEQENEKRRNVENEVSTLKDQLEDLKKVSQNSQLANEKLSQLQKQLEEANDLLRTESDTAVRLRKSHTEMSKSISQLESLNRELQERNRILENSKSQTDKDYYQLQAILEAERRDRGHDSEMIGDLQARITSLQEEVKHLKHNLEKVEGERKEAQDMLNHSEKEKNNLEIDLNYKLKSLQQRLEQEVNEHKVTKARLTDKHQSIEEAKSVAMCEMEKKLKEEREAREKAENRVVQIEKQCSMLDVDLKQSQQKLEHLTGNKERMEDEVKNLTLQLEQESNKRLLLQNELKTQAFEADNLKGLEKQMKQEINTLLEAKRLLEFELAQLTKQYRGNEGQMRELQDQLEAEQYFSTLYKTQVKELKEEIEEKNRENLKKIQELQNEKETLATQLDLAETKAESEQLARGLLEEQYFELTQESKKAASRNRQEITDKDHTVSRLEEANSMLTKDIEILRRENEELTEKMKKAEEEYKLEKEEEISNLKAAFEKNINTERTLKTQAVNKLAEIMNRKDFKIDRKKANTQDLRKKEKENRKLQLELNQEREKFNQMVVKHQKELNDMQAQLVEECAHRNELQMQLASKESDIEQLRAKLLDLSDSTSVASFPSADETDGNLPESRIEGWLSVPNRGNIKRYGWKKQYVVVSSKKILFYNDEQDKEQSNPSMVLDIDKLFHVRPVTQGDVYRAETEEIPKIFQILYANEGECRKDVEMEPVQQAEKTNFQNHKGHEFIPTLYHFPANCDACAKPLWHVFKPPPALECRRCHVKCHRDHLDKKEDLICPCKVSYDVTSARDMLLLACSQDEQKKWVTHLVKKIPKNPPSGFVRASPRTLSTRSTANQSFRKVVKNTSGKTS
CYP2D6, sequence (P10635 whole entry): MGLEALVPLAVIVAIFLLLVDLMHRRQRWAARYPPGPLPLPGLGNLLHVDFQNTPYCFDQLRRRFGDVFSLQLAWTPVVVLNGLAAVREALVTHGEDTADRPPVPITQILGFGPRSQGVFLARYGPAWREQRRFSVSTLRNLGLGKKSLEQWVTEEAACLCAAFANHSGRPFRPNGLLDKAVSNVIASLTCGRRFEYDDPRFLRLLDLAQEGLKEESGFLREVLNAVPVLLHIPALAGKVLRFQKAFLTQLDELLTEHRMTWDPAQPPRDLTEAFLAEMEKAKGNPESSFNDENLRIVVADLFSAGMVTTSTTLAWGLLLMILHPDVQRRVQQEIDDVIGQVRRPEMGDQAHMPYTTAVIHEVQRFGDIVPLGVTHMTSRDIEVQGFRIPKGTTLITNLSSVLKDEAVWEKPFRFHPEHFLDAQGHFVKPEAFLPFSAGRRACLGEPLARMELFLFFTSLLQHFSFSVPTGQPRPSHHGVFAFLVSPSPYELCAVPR

With `COc1cccc(CNC(=O)c2cn(CCN(C)C)c3cc(-c4cn[nH]c4)ccc23)c1`, the half-maximal inhibitory concentration (IC50) is below 1 nM in series [1], 5 nM in [2], 7000 nM in [3] and 23 nM in series [4]. Moreover, the half-life in [5] was 20 min; in [12], 72 min. Further, the inhibition at 10 µM in [6] was -6%; in [7], 91%; in series [8], 53%; in series [9] it was 70%. The compound further gave a clearance in [10] of 42 mL/min/kg. The Vd in series [11] is 3.2 L/kg. Moreover, the exposure (AUC) is 0.02 µM·h in series [13] and 1 µM·h in series [17]. The compound further showed a bioavailability in [14] of 1%. The values for the solubility in series [15] and in series [16] were at least 100 µM and 77 µM (≈ 32100 ng/mL), respectively.
As for `COc1cccc(CNC(=O)c2cn(CCN3CCCC3)c3nc(-c4cn[nH]c4)ccc23)c1`, the figures for the IC50 in series [1], in series [2] and in series [3] were 8 nM, 89 nM and above 20000 nM, respectively. The half-life is 21 min in [5] and 90 min in [12]. The inhibition at 10 µM in series [6] was 9%; in [7], 51%; in series [8] it was 69%; in series [9] it was 44%. The clearance in series [10] stood at 114 mL/min/kg. In series [11], the Vd is 10 L/kg. The compound further had a bioavailability in [14] of 0%. This compound returned an AUC in series [17] of 0.3 µM·h.
As to `COc1cccc(CNC(=O)c2[nH]c3cc(-c4cn[nH]c4)ccc3c2CN2CCOCC2)c1`, the concentration for half-maximal inhibition (IC50) in [1] worked out at 3 nM; in [2], 40 nM; in series [3], 18000 nM; in series [4], 130 nM. Also, the half-life in [5] was 8 min; in series [12], 84 min. The inhibition at 10 µM turned out to be 46% in series [6], 86% in series [7], 70% in series [8] and 86% in series [9]. The clearance in series [10] came to 32 mL/min/kg. The Vd in series [11] was found to be 2 L/kg. In series [14], this compound showed a bioavailability of 0%. This compound displayed an AUC in series [17] of 1.2 µM·h.
Turning to `COc1cccc(CNC(=O)c2cc3ccc(-c4cn[nH]c4)cc3[nH]2)c1`, in series [3], 6700 nM corresponded to half-maximal inhibition (IC50). The solubility in [15] and in series [16] was at most 0.01 µM in each case.
Consider `COc1cccc(CN(C)C(=O)c2cn(C)c3cc(-c4cn[nH]c4)ccc23)c1`, for which the half-maximal inhibitory concentration (IC50) was below 1 nM in series [1], 3 nM in [2], 680 nM in series [3] and 17 nM in [4]. The same compound had a half-life in series [5] of 4 min. Further, the inhibition at 10 µM in series [6] amounted to 23%; in [7] it was 93%; in [8], 58%; in series [9], 70%.
With `COc1cccc(CN(CCN(C)C)C(=O)c2cn(C)c3cc(-c4cn[nH]c4)ccc23)c1`, the half-maximal inhibitory concentration (IC50) turned out to be 1 nM in series [1], 9 nM in [2], 2200 nM in [3] and 34 nM in series [4]. Besides, the half-life in series [5] came to 8 min. Besides, the inhibition at 10 µM worked out at 3% in series [6], 62% in series [7], 52% in [8] and 36% in [9].
As to `COc1cccc(CN(C)C(=O)c2cc3ccc(-c4cn[nH]c4)cc3[nH]2)c1`, the IC50 in series [1] came out at 3 nM; in series [2] it was 37 nM; in [3], 2800 nM; in series [4] it was 70 nM. Also, the half-life in series [5] came to 46 min. For the same compound, the inhibition at 10 µM in series [6] is -7%; in series [7] it was 27%; in series [8], 9%; in series [9], 2%.
In series [3], `COc1cccc(CNC(=O)c2c[nH]c3cc(-c4cn[nH]c4)ccc23)c1` had an IC50 of 510 nM. The solubility in series [15] and in series [16] was at most 0.01 µM throughout.
